# Assay results as given in patent US6395896B2, “Pyridazine derivatives, manufacturing method and related composition” (Shiseido Co., Ltd., priority 1999, dated 2002).
# Experiment: Colorant stabilization effect (photostabilizer, sunlight exposure)
# Set-up: key to Sunlight exposure (80 MJ) Appearance: A: No change; B: No almost change; C: Yes change; key to Sunlight exposure (80 MJ) ΔE: ΔE color difference (Lab) vs. color before sunlight exposure
# Procedure: First of all, the photostabilization effect and appearance change of a composition in each pigment were studied by the following evaluation formulation.
# Each test sample was prepared. Observation of appearance change (visual evaluation) and measurement of color difference (ΔE) were carried out in samples exposed to sunlight exposure (around 80 MJ).
# Color difference was measured by Lab coordinate system with spectrophotometer. Color difference was calculated on the basis of the color before sunlight exposure. Namely, from measured value (L1,a1,b1) before sunlight exposure, color difference (ΔE) was calculated by following formula.
# [1] = Red No. 227 0.0001 wt % + Yellow No. 5 0.0001 wt %, photostabilizer 0.05 wt %
# [2] = Red No. 227 0.0001 wt % + Yellow No. 5 0.0001 wt %, photostabilizer 0.1 wt %
# [3] = Red No. 227 0.0001 wt % + Yellow No. 203 0.0001 wt %, photostabilizer 0.05 wt %
# [4] = Red No. 227 0.0001 wt % + Yellow No. 203 0.0001 wt %, photostabilizer 0.1 wt %
# [5] = Red No. 227 0.0001 wt % + Yellow No. 203 0.0001 wt %, photostabilizer 0.3 wt %
# [6] = Red No. 227 0.0001 wt %, photostabilizer 0.02 wt %
# [7] = Red No. 227 0.0001 wt %, photostabilizer 0.05 wt %
# [8] = Red No. 227 0.0001 wt %, photostabilizer 0.1 wt %
# [9] = Red No. 401 0.0001 wt % + Blue No. 1 0.00001 wt %, photostabilizer 0.03 wt %
# [10] = Red No. 401 0.0001 wt % + Blue No. 1 0.00001 wt %, photostabilizer 0.05 wt %
# [11] = Red No. 401 0.0001 wt % + Blue No. 1 0.00001 wt %, photostabilizer 0.1 wt %
# [12] = Red No. 401 0.0001 wt % + Green No. 3 0.00001 wt %, photostabilizer 0.03 wt %
# [13] = Red No. 401 0.0001 wt % + Green No. 3 0.00001 wt %, photostabilizer 0.05 wt %
# [14] = Red No. 401 0.0001 wt % + Green No. 3 0.00001 wt %, photostabilizer 0.3 wt %
# [15] = Red No. 401 0.0001 wt %, photostabilizer 0.05 wt %
# [16] = Red No. 401 0.0001 wt %, photostabilizer 0.1 wt %
# [17] = Red No. 401 0.0001 wt %, photostabilizer 0.3 wt %
# [18] = Red No. 401 0.001 wt %, photostabilizer 0.03 wt %
# [19] = Red No. 401 0.001 wt %, photostabilizer 0.05 wt %
# [20] = Red No. 401 0.001 wt %, photostabilizer 0.1 wt %
# [21] = Yellow No. 5 0.0001 wt %, photostabilizer 0.05 wt %
# [22] = Yellow No. 5 0.0001 wt %, photostabilizer 0.1 wt %
# [23] = Yellow No. 5 0.0001 wt %, photostabilizer 0.3 wt %
# [24] = Yellow No. 5 0.001 wt %, photostabilizer 0.01 wt %
# [25] = Yellow No. 5 0.001 wt %, photostabilizer 0.05 wt %
# [26] = Yellow No. 5 0.001 wt %, photostabilizer 0.1 wt %
# [27] = Yellow No. 203 0.0001 wt % + Yellow No. 5 0.0001 wt %, photostabilizer 0.03 wt %
# [28] = Yellow No. 203 0.0001 wt % + Yellow No. 5 0.0001 wt %, photostabilizer 0.05 wt %
# [29] = Yellow No. 203 0.0001 wt % + Yellow No. 5 0.0001 wt %, photostabilizer 0.1 wt %
# [30] = Yellow No. 203 0.0001 wt %, photostabilizer 0.05 wt %
# [31] = Yellow No. 203 0.0001 wt %, photostabilizer 0.1 wt %
# [32] = Yellow No. 203 0.0001 wt %, photostabilizer 0.3 wt %
# [33] = Yellow No. 203 0.001 wt %, photostabilizer 0.02 wt %
# [34] = Yellow No. 203 0.001 wt %, photostabilizer 0.05 wt %
# [35] = Yellow No. 203 0.001 wt %, photostabilizer 0.1 wt %
smiles,measurement,setting,value
"Oc1nncc(N2CCOCC2)c1N1CCOCC1 [4,5-Dimorpholino-3-hydroxypyridazine]",Sunlight exposure (80 MJ) ΔE,"Red No. 227 0.0001 wt % + Yellow No. 5 0.0001 wt %, photostabilizer 0.03 wt %",0.72
same,Sunlight exposure (80 MJ) Appearance,[1],A
same,Sunlight exposure (80 MJ) ΔE,[1],0.59
same,Sunlight exposure (80 MJ) Appearance,[2],A
same,Sunlight exposure (80 MJ) ΔE,[2],0.18
same,Sunlight exposure (80 MJ) Appearance,[3],A
same,Sunlight exposure (80 MJ) ΔE,[3],0.78
same,Sunlight exposure (80 MJ) Appearance,[4],A
same,Sunlight exposure (80 MJ) ΔE,[4],0.35
same,Sunlight exposure (80 MJ) Appearance,[5],A
same,Sunlight exposure (80 MJ) ΔE,[5],0.14
same,Sunlight exposure (80 MJ) Appearance,[6],A
same,Sunlight exposure (80 MJ) ΔE,[6],0.71
same,Sunlight exposure (80 MJ) Appearance,[7],A
same,Sunlight exposure (80 MJ) ΔE,[7],0.49
same,Sunlight exposure (80 MJ) Appearance,[8],A
same,Sunlight exposure (80 MJ) ΔE,[8],0.22
same,Sunlight exposure (80 MJ) Appearance,[9],A
same,Sunlight exposure (80 MJ) ΔE,[9],0.95
same,Sunlight exposure (80 MJ) Appearance,[10],A
same,Sunlight exposure (80 MJ) ΔE,[10],0.32
same,Sunlight exposure (80 MJ) Appearance,[11],A
same,Sunlight exposure (80 MJ) ΔE,[11],0.07
same,Sunlight exposure (80 MJ) Appearance,[12],A
same,Sunlight exposure (80 MJ) ΔE,[12],0.98
same,Sunlight exposure (80 MJ) Appearance,[13],A
same,Sunlight exposure (80 MJ) ΔE,[13],0.73
same,Sunlight exposure (80 MJ) Appearance,[14],A
same,Sunlight exposure (80 MJ) ΔE,[14],0.14
same,Sunlight exposure (80 MJ) Appearance,[15],A
same,Sunlight exposure (80 MJ) ΔE,[15],0.82
same,Sunlight exposure (80 MJ) Appearance,[16],A
same,Sunlight exposure (80 MJ) ΔE,[16],0.56
same,Sunlight exposure (80 MJ) Appearance,[17],A
same,Sunlight exposure (80 MJ) ΔE,[17],0.19
same,Sunlight exposure (80 MJ) Appearance,[18],A
same,Sunlight exposure (80 MJ) ΔE,[18],0.95
same,Sunlight exposure (80 MJ) Appearance,[19],A
same,Sunlight exposure (80 MJ) ΔE,[19],0.71
same,Sunlight exposure (80 MJ) Appearance,[20],A
same,Sunlight exposure (80 MJ) ΔE,[20],0.45
same,Sunlight exposure (80 MJ) Appearance,[21],A
same,Sunlight exposure (80 MJ) ΔE,[21],0.59
same,Sunlight exposure (80 MJ) Appearance,[22],A
same,Sunlight exposure (80 MJ) ΔE,[22],0.71
same,Sunlight exposure (80 MJ) Appearance,[23],A
same,Sunlight exposure (80 MJ) ΔE,[23],0.22
same,Sunlight exposure (80 MJ) Appearance,[24],A
same,Sunlight exposure (80 MJ) ΔE,[24],0.61
same,Sunlight exposure (80 MJ) Appearance,[25],A
same,Sunlight exposure (80 MJ) ΔE,[25],0.43
same,Sunlight exposure (80 MJ) Appearance,[26],A
same,Sunlight exposure (80 MJ) ΔE,[26],0.22
same,Sunlight exposure (80 MJ) Appearance,[27],A
same,Sunlight exposure (80 MJ) ΔE,[27],0.52
same,Sunlight exposure (80 MJ) Appearance,[28],A
same,Sunlight exposure (80 MJ) ΔE,[28],0.37
same,Sunlight exposure (80 MJ) Appearance,[29],A
same,Sunlight exposure (80 MJ) ΔE,[29],0.12
same,Sunlight exposure (80 MJ) Appearance,[30],A
same,Sunlight exposure (80 MJ) ΔE,[30],0.22
same,Sunlight exposure (80 MJ) Appearance,[31],A
same,Sunlight exposure (80 MJ) ΔE,[31],0.10
same,Sunlight exposure (80 MJ) Appearance,[32],A
same,Sunlight exposure (80 MJ) ΔE,[32],0.05
same,Sunlight exposure (80 MJ) Appearance,[33],A
same,Sunlight exposure (80 MJ) ΔE,[33],0.25
same,Sunlight exposure (80 MJ) Appearance,[34],A
same,Sunlight exposure (80 MJ) ΔE,[34],0.18
same,Sunlight exposure (80 MJ) Appearance,[35],A
same,Sunlight exposure (80 MJ) ΔE,[35],0.08
same,change of appearance of the composition,summary of Tables 11 to 13,small
same,color difference ΔE,summary of Tables 11 to 13,very small in comparison with other photostabilizers
